Values of other authors in patent publication US20030100472A1, “Detergent tablet compositions” (Unilever Home & Personal Care USA, Division of Conopco, Inc., priority 2001, published 2003).
Where two headings read alike, the source gives them in different places.

SMILES	Water Solubility (g/100 g) (at 20° C., other materials)	Water Solubility (g/100 g) (grams of solid required to form a saturated solution in 100 grams of water at 20° C., highly water-soluble materials)
O=P(O)(O)OP(=O)(O)OP(=O)(O)O [Sodium tripolyphosphate anhydrous]	15 g/100 g	–
O=BO[O-].[Na+] [Sodium perborate anhydrous]	3.7 g/100 g	–
NC(N)=O [Urea]	–	>100 g/100 g
